Series [1] concerns the target Cytochrome P450 2C9 (Homo sapiens, UniProt P11712).
Series [2] is described as follows: Luminescence Cell-Based Dose Retest to Confirm Inhibitors of Cancer Stem Cells. [Related pubchem assays (depositor defined):AID2717, AID2721]. The series is classed as functional. The settings on record: Homo sapiens.
The target of series [3] is T1, Ubiquitin-conjugating enzyme E2 N (Homo sapiens, UniProt P61088).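 Also: Dose-response confirmation in a TR-FRET assay detecting UBC13-driven polyubiquitin chain formation, inhibition measured.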
T1 sequence (P61088 whole entry): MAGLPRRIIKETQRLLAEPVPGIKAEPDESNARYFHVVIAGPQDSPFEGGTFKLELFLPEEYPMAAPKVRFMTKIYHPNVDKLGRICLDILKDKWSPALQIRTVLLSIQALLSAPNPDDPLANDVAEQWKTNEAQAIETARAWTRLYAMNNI
The class given is functional.

The nature of series [4]: cells. The class given is functional, cell-based.
A short description of series [5]: cells. The class given is functional, cell-based. This is another data set of the same source.
Series [6] has as its target Cytochrome P450 2C19 (Homo sapiens, UniProt P33261). Description: Cytochrome panel assay with activity outcomes. Panel member name: p450-cyp2c19 Compounds with AC50 equal or less than 10 uM are considered active. The class given is functional. As to conditions: read-out: AC50.
The test system of series [7] is Streptococcus sp. 'group A'. Description: Streptococcus pyogenes SK(-)GAS viability under kanamycin – luminescence, BacTiterGlo, confirmation, counter-screen for streptokinase expression inhibitor project, dose response (AID 1900). The series is classed as functional, organism-based.
The target of series [8] is T2, Streptokinase A (Streptococcus pyogenes serotype M1, UniProt P10520).
T2 sequence (P10520 whole entry): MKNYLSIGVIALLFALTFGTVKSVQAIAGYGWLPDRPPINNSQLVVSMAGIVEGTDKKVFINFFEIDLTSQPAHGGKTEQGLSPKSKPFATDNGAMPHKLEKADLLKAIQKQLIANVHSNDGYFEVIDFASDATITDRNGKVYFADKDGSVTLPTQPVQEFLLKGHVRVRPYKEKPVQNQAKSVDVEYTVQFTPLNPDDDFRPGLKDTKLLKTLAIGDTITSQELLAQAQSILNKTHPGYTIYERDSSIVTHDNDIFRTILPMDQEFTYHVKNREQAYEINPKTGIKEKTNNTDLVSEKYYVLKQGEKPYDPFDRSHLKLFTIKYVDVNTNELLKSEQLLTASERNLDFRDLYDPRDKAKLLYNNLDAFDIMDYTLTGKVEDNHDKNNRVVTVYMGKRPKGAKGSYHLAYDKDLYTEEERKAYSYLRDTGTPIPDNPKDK
As to the kind of experiment: viability-normalized secreted streptokinase activity reduction – plasminogen activation absorbance, OD405, dose response (AID 1914).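 Also: secreted streptokinase activity via plasminogen activation per viability signal from cell pellet.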 The class given is functional, Streptococcus pyogenes M1 GAS.

For series [9], the system named is Streptococcus. As to the kind of experiment: GAS UMAA2166 growth inhibition – luminescence, BacTiterGlo, counter-screen for streptokinase expression inhibitor project, dose response (AID 1915).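 Also: potency for reduction of bacterial viability or growth.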 The class given is functional, organism-based.
The target in series [10] is T3, Mannose-6-phosphate isomerase (Homo sapiens, UniProt P34949).
T3 sequence (P34949 whole entry): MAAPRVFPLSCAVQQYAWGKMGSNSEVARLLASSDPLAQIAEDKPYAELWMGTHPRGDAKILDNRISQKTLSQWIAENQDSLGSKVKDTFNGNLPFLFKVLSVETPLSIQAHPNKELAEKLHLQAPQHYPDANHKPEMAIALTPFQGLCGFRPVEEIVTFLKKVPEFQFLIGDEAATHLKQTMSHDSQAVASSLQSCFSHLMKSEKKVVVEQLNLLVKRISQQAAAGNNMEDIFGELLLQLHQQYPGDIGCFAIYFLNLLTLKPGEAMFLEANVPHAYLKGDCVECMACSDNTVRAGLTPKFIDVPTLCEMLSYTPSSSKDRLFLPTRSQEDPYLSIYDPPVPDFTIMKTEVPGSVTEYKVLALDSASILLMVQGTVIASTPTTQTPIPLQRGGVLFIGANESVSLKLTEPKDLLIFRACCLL
As to the kind of experiment: MPI inhibition at elevated mannose 6-phosphate – biochemical, fluorescence intensity, high mannose 6-phosphate, primary screen (AID 1220).

Series [11] deals with T4, Replicative DNA helicase DnaB (Mycobacterium tuberculosis, UniProt P9WMR3).
T4 sequence (P9WMR3 whole entry): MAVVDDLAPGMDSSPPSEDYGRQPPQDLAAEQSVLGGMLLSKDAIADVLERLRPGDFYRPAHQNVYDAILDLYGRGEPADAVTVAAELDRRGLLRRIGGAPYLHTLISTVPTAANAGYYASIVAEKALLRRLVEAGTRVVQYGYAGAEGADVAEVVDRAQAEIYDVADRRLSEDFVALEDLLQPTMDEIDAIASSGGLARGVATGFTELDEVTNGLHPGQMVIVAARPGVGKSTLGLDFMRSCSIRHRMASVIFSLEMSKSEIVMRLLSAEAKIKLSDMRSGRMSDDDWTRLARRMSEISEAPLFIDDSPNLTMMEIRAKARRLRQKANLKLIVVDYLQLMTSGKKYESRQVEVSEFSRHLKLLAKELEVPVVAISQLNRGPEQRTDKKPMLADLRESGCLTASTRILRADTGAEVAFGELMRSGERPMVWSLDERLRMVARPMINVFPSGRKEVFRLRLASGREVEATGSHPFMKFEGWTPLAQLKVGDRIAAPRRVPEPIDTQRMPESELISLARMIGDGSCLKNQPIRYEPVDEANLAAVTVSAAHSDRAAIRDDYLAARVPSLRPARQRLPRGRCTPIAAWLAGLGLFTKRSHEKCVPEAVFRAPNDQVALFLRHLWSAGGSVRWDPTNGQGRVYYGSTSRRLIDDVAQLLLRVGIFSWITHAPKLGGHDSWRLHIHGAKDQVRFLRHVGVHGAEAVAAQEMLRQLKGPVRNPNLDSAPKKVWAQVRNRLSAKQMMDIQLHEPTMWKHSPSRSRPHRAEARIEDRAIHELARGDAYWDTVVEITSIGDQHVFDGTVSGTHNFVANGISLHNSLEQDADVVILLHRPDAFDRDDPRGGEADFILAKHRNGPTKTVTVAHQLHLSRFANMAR
As to the kind of experiment: DnaB intein splicing inhibitors, dose response, biochemical, cell-free fluorescence (AID 449749). The class given is functional.

Series [12] concerns the target T5, Protein RecA (Mycobacterium tuberculosis, UniProt P9WHJ3).
T5 sequence (P9WHJ3 whole entry): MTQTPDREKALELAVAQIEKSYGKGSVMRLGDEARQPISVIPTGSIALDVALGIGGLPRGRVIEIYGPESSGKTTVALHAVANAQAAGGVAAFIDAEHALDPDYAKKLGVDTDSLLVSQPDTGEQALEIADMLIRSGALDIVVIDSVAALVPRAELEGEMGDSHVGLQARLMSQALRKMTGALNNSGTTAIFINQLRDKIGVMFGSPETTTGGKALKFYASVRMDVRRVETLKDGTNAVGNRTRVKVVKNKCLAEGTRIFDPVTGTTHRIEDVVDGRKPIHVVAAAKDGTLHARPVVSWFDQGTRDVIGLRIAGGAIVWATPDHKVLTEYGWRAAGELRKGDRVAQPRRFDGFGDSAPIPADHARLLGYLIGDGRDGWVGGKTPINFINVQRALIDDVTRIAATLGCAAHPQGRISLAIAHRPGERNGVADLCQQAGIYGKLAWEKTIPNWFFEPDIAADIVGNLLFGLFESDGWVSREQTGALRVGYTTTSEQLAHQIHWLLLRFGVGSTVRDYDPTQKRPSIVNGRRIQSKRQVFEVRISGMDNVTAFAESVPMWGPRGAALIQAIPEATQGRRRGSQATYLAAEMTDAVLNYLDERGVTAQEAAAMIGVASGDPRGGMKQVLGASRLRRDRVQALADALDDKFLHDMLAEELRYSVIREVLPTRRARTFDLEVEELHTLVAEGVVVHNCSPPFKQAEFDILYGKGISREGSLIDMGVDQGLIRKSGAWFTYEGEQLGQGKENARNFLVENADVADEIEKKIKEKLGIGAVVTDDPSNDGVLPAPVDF
Description: Fluorescence Cell-Free Homogeneous Dose Retest to Identify Inhibitors of RecA-Intein Splicing Activity. [Related pubchem assays (depositor defined):AID2097, AID2223, AID489010, AID492950]. The class given is functional.

The target in series [13] is Glyceraldehyde-3-phosphate dehydrogenase (Homo sapiens, UniProt P04406).
Chain of Glyceraldehyde-3-phosphate dehydrogenase (P04406 whole entry): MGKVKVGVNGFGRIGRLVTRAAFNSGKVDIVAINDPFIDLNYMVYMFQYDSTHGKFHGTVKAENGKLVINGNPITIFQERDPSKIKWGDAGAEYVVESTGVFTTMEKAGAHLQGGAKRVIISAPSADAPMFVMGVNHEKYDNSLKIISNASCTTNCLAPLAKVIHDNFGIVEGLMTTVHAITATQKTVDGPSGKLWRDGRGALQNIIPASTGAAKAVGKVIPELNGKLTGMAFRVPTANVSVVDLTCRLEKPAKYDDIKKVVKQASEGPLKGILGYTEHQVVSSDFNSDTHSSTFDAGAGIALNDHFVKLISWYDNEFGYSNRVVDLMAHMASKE
Series [14] is described as follows: Luminescence Cell-Based Dose Response HTS to Identify Activators of Luciferase Translation or Activity in H4 […] Cells. [Related pubchem assays: 1829 (Project Summary), 1814 (Primary HTS)]. The series is classed as functional.
Series [15] relates to H4. As to the kind of experiment: Luminescence Cell-Based Dose Response HTS to Identify Activators of 5'UTR Stem-Loop Driven Prion Protein mRNA Translation in H4 Neuroglioblastoma Cells. [Related pubchem assays: 1829 (Project Summary), 1814 (Primary HTS)]. As to conditions: Homo sapiens. The class given is functional.
The target in series [16] is T6, Heat shock factor protein 1 (Mus musculus, UniProt P38532).
T6 sequence (P38532 whole entry): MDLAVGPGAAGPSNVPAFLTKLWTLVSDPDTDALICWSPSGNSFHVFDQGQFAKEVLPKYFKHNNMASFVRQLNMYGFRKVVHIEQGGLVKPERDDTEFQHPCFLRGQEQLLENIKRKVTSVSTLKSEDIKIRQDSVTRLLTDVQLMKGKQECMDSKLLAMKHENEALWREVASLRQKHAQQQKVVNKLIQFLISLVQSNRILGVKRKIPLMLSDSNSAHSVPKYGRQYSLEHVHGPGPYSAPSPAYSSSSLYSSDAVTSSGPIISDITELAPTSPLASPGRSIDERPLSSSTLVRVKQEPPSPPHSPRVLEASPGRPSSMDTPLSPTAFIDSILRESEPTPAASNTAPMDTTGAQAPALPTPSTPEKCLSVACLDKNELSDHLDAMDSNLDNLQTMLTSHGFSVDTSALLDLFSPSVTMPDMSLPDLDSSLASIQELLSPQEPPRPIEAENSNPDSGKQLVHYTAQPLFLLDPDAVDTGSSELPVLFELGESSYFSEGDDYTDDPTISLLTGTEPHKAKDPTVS
As to the kind of experiment: decrease of HSF1-responsive luciferase luminescence – cell-based, NIH3T3, dose retest, confirmation (AID 2382).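 Also: NIH3T3 fibroblasts with HSF1-driven luciferase reporter stressed by proteasome inhibitor MG132; luminescence from HSF1-driven luciferase expression after 8 hours of MG132 stress.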 The class given is functional.

The source made the active and inactive calls.

Chain of Cytochrome P450 2C9 (P11712 whole entry): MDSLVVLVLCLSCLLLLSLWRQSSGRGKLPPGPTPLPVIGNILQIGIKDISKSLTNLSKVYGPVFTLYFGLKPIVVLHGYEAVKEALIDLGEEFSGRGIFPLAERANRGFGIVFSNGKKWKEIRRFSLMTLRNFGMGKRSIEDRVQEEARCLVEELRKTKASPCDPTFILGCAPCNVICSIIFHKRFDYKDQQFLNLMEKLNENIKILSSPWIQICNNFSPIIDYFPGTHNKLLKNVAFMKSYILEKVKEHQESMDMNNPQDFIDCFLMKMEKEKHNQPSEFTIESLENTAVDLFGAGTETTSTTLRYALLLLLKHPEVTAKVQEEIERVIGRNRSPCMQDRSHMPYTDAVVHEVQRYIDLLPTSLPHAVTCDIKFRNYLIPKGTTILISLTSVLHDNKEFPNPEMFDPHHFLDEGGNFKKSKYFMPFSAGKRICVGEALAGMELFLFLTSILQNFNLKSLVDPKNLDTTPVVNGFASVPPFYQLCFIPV
Chain of Cytochrome P450 2C19 (P33261 whole entry): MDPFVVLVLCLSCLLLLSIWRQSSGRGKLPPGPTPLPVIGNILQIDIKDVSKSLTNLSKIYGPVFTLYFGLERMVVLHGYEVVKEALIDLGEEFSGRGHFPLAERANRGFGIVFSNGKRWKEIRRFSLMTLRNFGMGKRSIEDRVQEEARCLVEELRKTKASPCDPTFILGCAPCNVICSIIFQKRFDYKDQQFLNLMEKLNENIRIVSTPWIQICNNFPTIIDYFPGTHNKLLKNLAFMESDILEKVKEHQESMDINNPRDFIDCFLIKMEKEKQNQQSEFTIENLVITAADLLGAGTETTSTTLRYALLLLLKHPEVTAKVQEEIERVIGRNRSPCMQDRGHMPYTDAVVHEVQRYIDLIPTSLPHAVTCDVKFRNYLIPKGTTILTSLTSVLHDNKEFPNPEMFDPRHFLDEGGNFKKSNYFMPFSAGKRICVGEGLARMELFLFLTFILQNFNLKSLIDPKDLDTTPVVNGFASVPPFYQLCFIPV

Regarding `O=C(Cc1c[nH]c2ccccc12)OCC(=O)c1ccccc1`, the AC50 result in series [1] is listed as “inconclusive”.

For `Cc1cc(N2CCN(C)CC2)nc2ccc(NC(=S)N3CCN(c4ccc(F)cc4)CC3)cc12`, the AC50 in series [2] is 5.34 µM (active). The IC50 in series [3] was > 20 µM (inactive).

For the compound `NS(=O)(=O)c1ccc(NC(=O)c2ccc(CSc3ccccc3)o2)cc1`, the EC50 in series [4] and in [5] was > 350 µM (not active) in each case.

For the compound `COC(=O)Nc1ccc(=O)n(Cc2c(Cl)cccc2Cl)c1`, the EC50 in series [4] and in series [5] was > 350 µM (not active) throughout.

In the case of `COc1ccc(OC)c(CNC(=O)C2CCCN(S(=O)(=O)N3CCC(C)CC3)C2)c1` (stereo not drawn), the EC50 in [4] and in series [5] was > 350 µM (not active) in each case.

In the case of `Cc1cnc(CNc2ncnc3ccc(-c4ccccc4CN(C)C)cc23)cn1`, the concentration at half-maximal activity (AC50) in series [6] was 31.6 µM (inconclusive); in series [1] it was “inconclusive”.

For `CN1c2ccccc2C(C)(C)C12C=Nc1c(ccc3ccccc13)O2` (stereo not drawn), the EC50 in series [7] is 3.92 µM (active); in [8], 24 µM (active); in [9] it was > 150 µM (not active); in series [12], 14.4 µM (active). In addition, the IC50 in series [10] was > 50 µM (not active). In addition, the AC50 in series [11] was 32.4 µM (active).

Take `COc1ccc(S(=O)(=O)Nc2cccnc2)c(OC)c1`: the IC50 in series [13] was > 100 µM (not active).

For the compound `CN(C)C1=C(Cl)C(=O)N(c2ccc(C(F)(F)F)cc2)C1=O`, the IC50 in series [13] is > 50 µM (inconclusive).

For `CCOC(=O)N1CCN(C(=O)CN(C)S(=O)(=O)c2ccc3c(c2)C(C)(C)C(=O)N3C)CC1`, the concentration at half-maximal activity (AC50) was 3.16 µM (inconclusive) in series [6] and “inconclusive” in series [1].

As for `Cc1ccc(C)c(NC(=O)CN(C)C(=O)Cc2coc3cc(C)c(C)cc23)c1`, the EC50 in [4] and in series [5] was > 350 µM (not active) throughout.

As to `NC[C@H](Cc1ccccc1)NCCc1cc(C(F)(F)F)cc(C(F)(F)F)c1`, the IC50 in series [3] is > 20 µM (inactive).

Take `Cc1cc(/C=N/N2CCN(C)CC2)c(C)n1-c1ccc(Cl)cc1`: the EC50 in series [4] and in series [5] was > 350 µM (not active) each time.

Regarding `CN(C)/N=C/C=C1\CCC/C(=C/c2cccs2)C1=O`, the EC50 in series [14] was 0.452 µM (active); in series [4], > 350 µM (not active); in series [15], > 120 µM (not active); in [5] it was 5.27 µM (active).

Consider `O=C(NCCCCO)c1cc(-c2ccc(Cl)cc2Cl)n[nH]1`, for which the IC50 in series [13] was > 10 µM (inconclusive).

Consider `Cn1nc(N)c2c(-c3ccccc3)c(C#N)c(N)nc21`, for which the EC50 in [16] is > 195 µM (not active). Also, in [3], the IC50 is > 20 µM (inactive).

These data come from ChEMBL document CHEMBL1201862, “PubChem BioAssay data set” (2004).
